{"source": "patent US7507749B2", "about": "“Antitumor agents” (priority 2001, dated 2009)", "key": {"[1]": {"system": "mammary adenocarcinoma-17/Adr", "test": "Test D: racemic compound 22c against early stage mammary adenocarcinoma-17/Adr", "type": "in vivo", "conditions": "for % Body Wt Loss at Nadir / % T/C mass / Activity Rating / Day of Nadir / Drug Deaths / Growth Delay / Log Kill / Median Tumor Mass on Day 10 (Range) / Tumor Free day-42: days 1,2,3,6,7,8", "description": "Female C3H/HeN (MTV-neg) mice were obtained from N.C.I. Frederick (D.O.B. was Oct. 9, 2000; D.O.A. was Nov. 14, 2000). […] Then, P.B.S. was added, and the pH was adjusted to 7 with HCl. 0.2 ml per injection was administered IV."}, "colon carcinoma 26": {"system": "colon carcinoma 26", "description": "In this trial the R-enantiomers of XK-469, compound 22c, and compound 22b were compared against advanced staged colon carcinoma 26 in female Balb/c mice. […] Cage #2 was 22b at 400 mg/kg and Cage #4 was 22c at 400 mg/kg.\nThe XK469-R, 22b, and 22c compound doses were all prepared the same, using 3% ethanol, 1% POE-80, and 0.5% sodium bicarbonate. The injection volume was 0.2 mu/mouse IV. […] The mice were Balb/c female mice: DOB Feb. 12, 2001; DOA Mar. 27, 2001; DOT Sep. 8, 2001, with an average body weight of 24.7 grams at the start of Rx administration. The tumor was Colon Carcinoma-26 passage 141; date of implant Sep. 8, 2001, and implanted at 30 to 60 mg fragments bilaterally SC. All tumors were 63 to 171 mg on day 6, the day of first Rx."}, "[2]": {"system": "mammary adenocarcinoma-17/Adr", "test": "Test E: R-enantiomer of compound 22b and compound 22a against early stage mammary adenocarcinoma-17/Adr", "type": "in vivo", "description": "Then, P.B.S. was added and the pH adjusted to 7 with HCl. A volume of 0.2 ml per injection was administered to animals intravenously. […] Then, P.B.S. was added and the pH was adjusted to 7 with HCl. A volume of 0.2 ml per injection was administered to animals intravenously."}, "[3]": {"conditions": "Cage 3, IV 50, 62.5, then 60 mg/kg/inj, total 352.5 mg/kg"}, "[4]": {"conditions": "Cage 4, IV 30, 37.5, then 36 mg/kg/inj, total 211.5 mg/kg"}, "[5]": {"conditions": "Cg 5, IV 50 mg/kg/inj days 6,8,10,13,15, total 250 mg/kg"}, "[6]": {"conditions": "Cage 3, IV 36 mg/kg day 1, 48 mg/kg/inj qd 2-7, total 324 mg/kg"}, "[7]": {"conditions": "Cage 4, IV 7 inj, total 162 mg/kg"}, "[8]": {"conditions": "Cage 5, IV 7 inj, total 81 mg/kg"}}}
{"molecule": "CC(Oc1ccc(Oc2ccc3ccc(Br)cc3n2)cc1)C(=O)O", "note": "(racemic) [Racemic 22c, 2-[4-(7-bromoquinolin-2-yloxy)phenoxy]propanoic acid]", "values": [{"measurement": "Duration of slowing of nerve conduction", "setting": "[1]; Cage 3, 60 to 62.5 mg/kg dose IV", "result": "approximately 10 minutes"}, {"measurement": "Neuromuscular toxicity", "setting": "[1]; Cage 3, 60 to 62.5 mg/kg dose IV, mild gait disturbance", "result": "modest slowing of nerve conduction"}, {"measurement": "% Body Wt Loss at Nadir", "setting": "[1]; [3]", "result": "−5.5", "unit": "%"}, {"measurement": "% T/C mass", "setting": "[1]; [3]", "result": 0, "unit": "%"}, {"measurement": "Activity Rating", "setting": "[1]; [3]", "result": "++++ (>2.8)"}, {"measurement": "Day of Nadir", "setting": "[1]; [3]", "result": 11, "unit": "days"}, {"measurement": "Drug Deaths", "setting": "[1]; [3]", "result": "0/5"}, {"measurement": "Growth Delay", "setting": "[1]; [3]", "result": 14, "unit": "days"}, {"measurement": "Log Kill", "setting": "[1]; [3]", "result": 4.2}, {"measurement": "Median Tumor Mass on Day 10 (Range)", "setting": "[1]; [3]", "result": "0 (0-63) mg"}, {"measurement": "Tumor Free day-42", "setting": "[1]; [3]", "result": "0/5"}, {"measurement": "Day tumors reached 1000 mg (range)", "setting": "[1]; Cage 3, total 352.5 mg/kg IV", "result": "21 (range 19-42) day"}, {"measurement": "% Body Wt Loss at Nadir", "setting": "[1]; [4]", "result": "−4.1", "unit": "%"}, {"measurement": "% T/C mass", "setting": "[1]; [4]", "result": 5.6, "unit": "%"}, {"measurement": "Activity Rating", "setting": "[1]; [4]", "result": "++++ (>2.8)"}, {"measurement": "Day of Nadir", "setting": "[1]; [4]", "result": 13, "unit": "days"}, {"measurement": "Drug Deaths", "setting": "[1]; [4]", "result": "0/5"}, {"measurement": "Growth Delay", "setting": "[1]; [4]", "result": 10, "unit": "days"}, {"measurement": "Log Kill", "setting": "[1]; [4]", "result": 3.0}, {"measurement": "Median Tumor Mass on Day 10 (Range)", "setting": "[1]; [4]", "result": "172 (0-344) mg"}, {"measurement": "Tumor Free day-42", "setting": "[1]; [4]", "result": "0/5"}, {"measurement": "Neuromuscular toxicity", "setting": "[1]; Cage 4, IV 30-37.5 mg/kg/inj, total 211.5 mg/kg", "result": "no gait disturbance"}, {"measurement": "Day tumors reached 1000 mg (range)", "setting": "[1]; Cage 4, total 211.5 mg/kg IV", "result": "17 (range 14-21) day"}, {"measurement": "Toxicity of dose group", "setting": "colon carcinoma 26; Cage 4, 400 mg/kg, omitted from Table 8", "result": "toxic"}, {"measurement": "Activity Rating", "setting": "colon carcinoma 26; [5]", "result": "++++ (>2.8)"}, {"measurement": "CR's", "setting": "colon carcinoma 26; [5]", "result": "3/6"}, {"measurement": "tumor free survivors on day 55", "setting": "colon carcinoma 26; [5]", "result": "3/6"}]}
{"molecule": "CC(Oc1ccc(Oc2ccc3ccc(F)cc3n2)cc1)C(=O)O", "note": "(racemic) [Compound 22a, 2-[4-(7-fluoroquinolin-2-yloxy)phenoxy]propanoic acid]", "values": [{"measurement": "% Body Wt Loss at Nadir", "setting": "[2]; [6]", "result": "−1.6", "unit": "%"}, {"measurement": "% T/C mass", "setting": "[2]; [6]", "result": 14, "unit": "%"}, {"measurement": "Activity Rating", "setting": "[2]; [6]", "result": "++ (1.3-1.9)"}, {"measurement": "Day of Nadir", "setting": "[2]; [6]", "result": 5, "unit": "days"}, {"measurement": "Drug Deaths", "setting": "[2]; [6]", "result": "0/5"}, {"measurement": "Growth Delay", "setting": "[2]; [6]", "result": 5, "unit": "days"}, {"measurement": "Log Kill", "setting": "[2]; [6]", "result": 1.5}, {"measurement": "Median Tumor Mass on day 9 (Range)", "setting": "[2]; [6]", "result": "138 (63-207) mg"}, {"measurement": "Tumor Free day-23", "setting": "[2]; [6]", "result": "0/5"}, {"measurement": "Neuromuscular toxicity", "setting": "[2]; Cage 3, IV 48 mg/kg/inj, limits higher individual dosages", "result": "severe neuromuscular toxicity"}, {"measurement": "Duration of leg dysfunction (front legs)", "setting": "[2]; Cage 3, IV 48 mg/kg/inj, longer for the rear legs", "result": 15, "unit": "min"}, {"measurement": "% Body Wt Loss at Nadir", "setting": "[2]; [7]", "result": "−1.5", "unit": "%"}, {"measurement": "% T/C mass", "setting": "[2]; [7]", "result": ">100", "unit": "%"}, {"measurement": "Activity Rating", "setting": "[2]; [7]", "result": "inactive"}, {"measurement": "Day of Nadir", "setting": "[2]; [7]", "result": 5, "unit": "days"}, {"measurement": "Drug Deaths", "setting": "[2]; [7]", "result": "0/5"}, {"measurement": "Growth Delay", "setting": "[2]; [7]", "result": 1, "unit": "days"}, {"measurement": "Log Kill", "setting": "[2]; [7]", "result": 0.3}, {"measurement": "Median Tumor Mass on day 9 (Range)", "setting": "[2]; [7]", "result": "975 (252-1836) mg"}, {"measurement": "Tumor Free day-23", "setting": "[2]; [7]", "result": "0/5"}, {"measurement": "% Body Wt Loss at Nadir", "setting": "[2]; [8]", "result": "−3.0", "unit": "%"}, {"measurement": "% T/C mass", "setting": "[2]; [8]", "result": 77, "unit": "%"}, {"measurement": "Activity Rating", "setting": "[2]; [8]", "result": "inactive"}, {"measurement": "Day of Nadir", "setting": "[2]; [8]", "result": 5, "unit": "days"}, {"measurement": "Drug Deaths", "setting": "[2]; [8]", "result": "0/5"}, {"measurement": "Growth Delay", "setting": "[2]; [8]", "result": 1, "unit": "days"}, {"measurement": "Log Kill", "setting": "[2]; [8]", "result": 0.3}, {"measurement": "Median Tumor Mass on day 9 (Range)", "setting": "[2]; [8]", "result": "743 (725-1413) mg"}, {"measurement": "Tumor Free day-23", "setting": "[2]; [8]", "result": "0/5"}]}
